Experiments:
[1] = molecular target: T1, Human TLR7 (Homo sapiens, UniProt Q9NYK1); test: HEK-293 NFkB-luciferase reporter assay, CL097 stimulation; type: cell-based; conditions: ligand CL097
T1 construct: stably and individually express human TLR4, TLR7 or TLR9 full-length ORF cDNAs; host or cells: HEK-293 (ATCC) with ELAM-1 NF-kappaB luciferase reporter
T1 sequence (Q9NYK1 27-1049): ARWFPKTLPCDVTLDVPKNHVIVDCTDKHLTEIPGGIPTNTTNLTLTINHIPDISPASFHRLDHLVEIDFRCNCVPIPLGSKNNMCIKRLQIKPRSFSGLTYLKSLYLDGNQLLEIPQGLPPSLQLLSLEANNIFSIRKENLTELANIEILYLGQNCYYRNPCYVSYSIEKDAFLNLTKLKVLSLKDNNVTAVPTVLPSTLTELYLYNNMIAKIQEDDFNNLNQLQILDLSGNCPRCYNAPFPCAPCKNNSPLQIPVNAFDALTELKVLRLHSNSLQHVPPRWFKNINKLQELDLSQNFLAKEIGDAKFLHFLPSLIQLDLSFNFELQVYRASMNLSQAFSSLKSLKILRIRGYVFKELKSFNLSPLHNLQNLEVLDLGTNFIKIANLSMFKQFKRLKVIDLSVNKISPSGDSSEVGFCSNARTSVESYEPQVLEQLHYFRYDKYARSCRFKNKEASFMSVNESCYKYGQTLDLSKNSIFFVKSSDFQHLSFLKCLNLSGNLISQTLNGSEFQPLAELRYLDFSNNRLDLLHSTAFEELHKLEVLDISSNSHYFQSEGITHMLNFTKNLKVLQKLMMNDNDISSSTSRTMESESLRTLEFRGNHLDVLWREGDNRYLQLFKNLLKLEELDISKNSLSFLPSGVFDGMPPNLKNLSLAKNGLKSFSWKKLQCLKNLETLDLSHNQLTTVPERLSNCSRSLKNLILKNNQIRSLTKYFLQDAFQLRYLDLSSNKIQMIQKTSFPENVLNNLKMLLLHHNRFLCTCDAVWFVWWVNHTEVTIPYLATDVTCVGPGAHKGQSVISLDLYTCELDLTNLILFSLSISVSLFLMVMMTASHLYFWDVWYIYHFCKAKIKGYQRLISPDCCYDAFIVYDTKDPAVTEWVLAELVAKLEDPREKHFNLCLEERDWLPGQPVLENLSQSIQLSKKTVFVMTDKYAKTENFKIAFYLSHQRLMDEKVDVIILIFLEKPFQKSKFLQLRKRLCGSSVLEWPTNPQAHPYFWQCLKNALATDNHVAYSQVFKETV
Source text: HEK-293 cells (ATCC) were engineered to stably express a NF-kappaB transcription factor inducible E-selectin (ELAM-1) luciferase reporter derived from the plasmid pGL3 (Promega) containing base pairs −2241 bp to −254 bp from the promoter of the human E-selectin gene (Accession No. NM_000450). These cells were then subsequently engineered to stably and individually express human TLR4, TLR7 or TLR9 full-length ORF cDNAs. Human TLR4 cDNA (Accession No. NM_138554) was cloned into pcDNA 3.0 expression vector (Invitrogen). TLR4 transfected cells were also engineered to express human MD-2 co-receptor [MD-2 cDNA (Accession No. NM_015364) was cloned into the pEF-BOS vector] and were supplemented with 10 nM soluble CD14 (R&D Systems) in the media to optimize LPS responsiveness. Human TLR9 cDNA (Accession No. NM_017442) was cloned into the pBluescript II KS vector (Agilent). Human TLR7 cDNA (Accession No. NM_016562) was obtained from OriGene. HEK-293 cells stably expressing human TLR8 (Accession No. NM_138636) or mouse TLR7 (Accession No. NM_133211) were purchased from InvivoGen and were then stably transfected with pNiFty2(NF-kappaB)-luciferase reporter plasmid (InvivoGen). Each cell type was plated in Dulbecco's modified Eagle's medium (DMEM) containing 10% fetal bovine serum (FBS) at a density of 2.22×10^5 cells/ml into a 384-well plate and incubated for 2 days at 37° C., 5% CO2. […]

[2] = test system: Human TLR7/8; test: Human PBMC cell-based assay, TLR7/8 (RNA-Ig), cytokine ELISA; conditions: Hu PBMC; ligand RNA-Ig; read-out: IC50, IL-6, Human TLR7/8
Protocol: Human peripheral blood mononuclear cells (PBMC) were isolated from freshly-drawn heparinized (10 USP units/ml, Hospira, Lakeforest, Ill.) healthy donor whole blood by density gradient (Histopaque® 1077, Sigma, Inc., St. Louis, Mo.). Briefly, 25 ml blood was diluted with 15 ml PBS (without Ca^2+, Mg^2+) in a 50 ml conical tube, and 12 ml Histopaque was underlaid using a spinal needle. Tubes were centrifuged for 45 minutes at 1200 rpm (350×g), and PBMC were collected from the buffy coat. Cells were then washed twice in PBS, and red blood cells were lysed by suspension in 5 ml ammonium chloride solution (1× Red Blood Cell Lysis Buffer, eBioscience) for 5 minutes at room temperature. After a final wash in PBS, PBMC were resuspended at a final concentration of 2×10^6/ml in RPMI-1640 media with L-glutamine (Invitrogen) and supplemented with 25 mM HEPES (Mediatech, Inc, Manassas Va.), 10% fetal bovine serum (HyClone, Logan, Utah), and Penicillin-Streptomycin-Glutamine (Mediatech) and plated at 100 ul/well (2×10^5 cells/well) in tissue culture treated 96-well plates (Falcon).
Antagonist compounds solubilized and serial diluted in 100% DMSO were added in triplicate to cells to yield a final concentration of 0.1% DMSO (v/v). Hydroxychloroquine (Acros Organics) solubilized and serial diluted in PBS was added in triplicate to cells. PBMC were incubated with antagonist compounds or HCQ for 30 minutes at 37° C., 5% CO2 before adding various TLR agonist reagents in 100 ul complete media per well as follows (final concentrations indicated): R848 (Resiquimod; GLSynthesis, Worcester, Mass.) at 1 uM for TLR7 and TLR8, Pam3CSK4 (InvivoGen) at 50 ng/ml for TLR1/2, LPS (Sigma) at 10 ng/ml for TLR4, and CpG-2216 (InvivoGen) at 5 ug/ml for TLR9. […] The resulting “RNA-Ig” stimulus was incubated at room temperature for 15-30 minutes before adding to cells. PBMC were incubated with the various TLR agonists for 20 hours at 37° C., 5% CO2. Cell culture supernatants were collected, and levels of various human cytokines were assessed as indicated by standard ELISA procedure according to the manufacturer's recommended protocol (BD Biosciences, Inc., San Diego, Calif.).

Which IC50 [1] does the source give for `C[C@H]1C[C@@H](N)CN(c2ccc(C#N)c3ncccc23)C1` [ER-888840, 5-((3R,5S)-3-amino-5-methylpiperidin-1-yl)quinoline-8-carbonitrile] here?
The IC50 was 0.2 nM.

And the IC50 [2]?
Its IC50 is 1.4 nM.

— patent US9663486B2, “Selectively substituted quinoline compounds” (EISAI R&D MANAGEMENT CO., LTD., priority 2013, dated 2017)
